Test results taken from patent US10752615B2, “Spirocyclic containing compounds and pharmaceutical uses thereof” (GB005, Inc., priority 2016, dated 2020).

Columns and labels:
TXK = TXK (Homo sapiens (Human), UniProt P42681); experiment: Kinase inhibition assay (Nanosyn, microfluidic detection), TXK; assay type: biochemical; conditions: 1 mM ATP, 3 hours at 25° C.
Description: The in vitro kinase assays were performed at Nanosyn (Santa Clara, Calif.) utilizing microfluidic detection technology. The test compounds were serially pre-diluted in DMSO and added, by the acoustic dispensing (Labcyte® 550), directly to 384 well assay plates into 10 uL of a buffer with enzyme (ITK, TXK, BTK or TEC) comprising: 100 mM HEPES, pH7.5, 5 mM MgCl2, 0.1% bovine serum albumin, 1 mM DTT, 0.01% Triton X-100 and the enzyme. Final DMSO concentration was maintained at 1% in all samples, including the controls. The reactions were initiated by addition of ATP (1 mM final concentration) and the fluorescently labeled peptide substrate to a final concentration of 1 uM, and incubated for 3 hours at 25° C. Following incubation, the reactions were quenched by addition of 40 μL of termination buffer (100 mM HEPES, pH7.5, 0.01% Triton X-100, 50 mM EDTA). Terminated plates were analyzed using Caliper LabChip® 3000 microfluidic electrophoresis instrument (Caliper Life Sciences/Perkin Elmer). […] As substrate and product are separated by electrophoresis, two peaks of fluorescence are observed. Change in the relative fluorescence intensity of the substrate and product peaks was the parameter measured, reflecting enzyme activity. In the presence of inhibitor, the ratio between product and substrate is altered: signal of the product decreases, while the signal of the substrate increases. Activity in each test sample was determined as the product to sum ratio (PSR): P/(S+P), where P is the peak height of the product and S is the peak height of the […]. For each compound, enzyme activity was measured at 12 concentrations spaced by 3× dilution intervals. Negative control samples (0%-inhibition in the absence of inhibitor, DMSO only) and positive control samples (100%-inhibition, in the absence of enzyme or in the presence of control inhibitor) were assembled in replicates of four and were used to calculate %-inhibition values in the presence of compounds. Percent inhibition (Pinh) was determined using the following equation: Pinh=(PSR0%−PSRinh)/(PSR0%−PSR100%)*100, where PSRinh is the product sum ratio in the presence of inhibitor, PSR0% is the product sum ratio in the absence of inhibitor and PSR100% is the product sum ratio in 100%-inhibition control samples. To determine IC50 values, the inhibition curves (Pinh versus inhibitor concentration) were fitted by 4 parameter sigmoid dose-response model using XLfit software (IDBS).

BTK = BTK (Homo sapiens (Human), UniProt Q06187); experiment: Kinase inhibition assay (Nanosyn, microfluidic detection), BTK; assay type: biochemical; conditions: 1 mM ATP, 3 hours at 25° C.
Description: The in vitro kinase assays were performed at Nanosyn (Santa Clara, Calif.) utilizing microfluidic detection technology. The test compounds were serially pre-diluted in DMSO and added, by the acoustic dispensing (Labcyte® 550), directly to 384 well assay plates into 10 uL of a buffer with enzyme (ITK, TXK, BTK or TEC) comprising: 100 mM HEPES, pH7.5, 5 mM MgCl2, 0.1% bovine serum albumin, 1 mM DTT, 0.01% Triton X-100 and the enzyme. Final DMSO concentration was maintained at 1% in all samples, including the controls. The reactions were initiated by addition of ATP (1 mM final concentration) and the fluorescently labeled peptide substrate to a final concentration of 1 uM, and incubated for 3 hours at 25° C. Following incubation, the reactions were quenched by addition of 40 μL of termination buffer (100 mM HEPES, pH7.5, 0.01% Triton X-100, 50 mM EDTA). Terminated plates were analyzed using Caliper LabChip® 3000 microfluidic electrophoresis instrument (Caliper Life Sciences/Perkin Elmer). The enzymatic modification of the peptide substrate (phosphorylation) results in a change of net charge enabling electrophoretic separation of product from substrate. As substrate and product are separated by electrophoresis, two peaks of fluorescence are observed. Change in the relative fluorescence intensity of the substrate and product peaks was the parameter measured, reflecting enzyme activity. In the presence of inhibitor, the ratio between product and substrate is altered: signal of the product decreases, while the signal of the substrate increases. Activity in each test sample was determined as the product to sum ratio (PSR): P/(S+P), where P is the peak height of the product and S is the peak height of the […]. For each compound, enzyme activity was measured at 12 concentrations spaced by 3× dilution intervals. Negative control samples (0%-inhibition in the absence of inhibitor, DMSO only) and positive control samples (100%-inhibition, in the absence of enzyme or in the presence of control inhibitor) were assembled in replicates of four and were used to calculate %-inhibition values in the presence of compounds. Percent inhibition (Pinh) was determined using the following equation: Pinh=(PSR0%−PSRinh)/(PSR0%−PSR100%)*100, where PSRinh is the product sum ratio in the presence of inhibitor, PSR0% is the product sum ratio in the absence of inhibitor and PSR100% is the product sum ratio in 100%-inhibition control samples. To determine IC50 values, the inhibition curves (Pinh versus inhibitor concentration) were fitted by 4 parameter sigmoid dose-response model using XLfit software (IDBS).

TXK, sequence (P42681 whole entry): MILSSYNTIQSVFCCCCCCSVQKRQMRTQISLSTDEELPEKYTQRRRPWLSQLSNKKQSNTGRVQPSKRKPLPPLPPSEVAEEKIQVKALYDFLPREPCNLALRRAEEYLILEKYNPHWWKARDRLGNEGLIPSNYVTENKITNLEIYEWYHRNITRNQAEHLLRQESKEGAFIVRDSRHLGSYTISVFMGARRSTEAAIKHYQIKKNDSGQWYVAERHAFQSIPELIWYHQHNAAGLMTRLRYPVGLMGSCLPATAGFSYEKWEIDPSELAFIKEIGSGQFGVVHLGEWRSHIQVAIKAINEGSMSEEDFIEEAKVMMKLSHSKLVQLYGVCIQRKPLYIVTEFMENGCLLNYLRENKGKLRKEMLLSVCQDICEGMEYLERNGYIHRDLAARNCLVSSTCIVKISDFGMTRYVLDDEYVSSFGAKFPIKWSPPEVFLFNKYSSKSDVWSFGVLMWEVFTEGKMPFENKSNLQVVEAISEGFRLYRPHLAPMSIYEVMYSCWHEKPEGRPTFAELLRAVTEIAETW
BTK, sequence (Q06187 whole entry): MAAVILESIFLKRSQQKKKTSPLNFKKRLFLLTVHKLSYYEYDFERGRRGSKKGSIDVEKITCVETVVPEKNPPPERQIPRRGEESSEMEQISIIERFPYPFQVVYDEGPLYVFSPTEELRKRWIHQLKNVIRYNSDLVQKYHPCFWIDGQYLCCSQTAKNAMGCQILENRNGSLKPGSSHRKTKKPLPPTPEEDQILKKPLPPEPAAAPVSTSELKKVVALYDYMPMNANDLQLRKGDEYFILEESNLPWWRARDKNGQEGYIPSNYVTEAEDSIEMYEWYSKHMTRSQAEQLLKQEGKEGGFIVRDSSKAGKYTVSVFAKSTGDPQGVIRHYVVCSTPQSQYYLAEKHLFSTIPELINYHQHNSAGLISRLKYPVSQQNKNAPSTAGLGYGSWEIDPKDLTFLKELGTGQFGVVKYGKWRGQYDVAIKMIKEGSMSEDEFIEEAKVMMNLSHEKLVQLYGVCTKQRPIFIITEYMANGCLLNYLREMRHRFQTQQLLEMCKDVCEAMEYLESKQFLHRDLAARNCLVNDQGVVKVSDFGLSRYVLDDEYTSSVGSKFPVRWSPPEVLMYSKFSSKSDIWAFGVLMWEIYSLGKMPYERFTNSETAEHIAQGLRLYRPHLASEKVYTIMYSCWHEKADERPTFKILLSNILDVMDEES

IC50 (TXK) [nM] | IC50 (BTK) [nM] | SMILES
 | 1.01 | C=CC(=O)N1CC[C@]2(C1)C[C@H](n1c(NC(=O)c3ccc(C(F)F)s3)nc3cc(CN[C@@H](C)C(C)(C)C)ccc31)C2 [Compound 2]
 | 26.8 | C=CC(=O)N1CC[C@]2(C1)C[C@@H](n1c(NC(=O)c3ccc(C(F)F)s3)nc3cc(CN[C@@H](C)C(C)(C)C)ccc31)C2 [Compound 3]
0.6 | 2.2 | C=CC(=O)N1CC[C@]2(C1)C[C@H](n1c(NC(=O)c3cnc(C(C)C)s3)nc3cc(CN[C@@H](C)C(C)(C)C)ccc31)C2 [Compound 7]
0.2 |  | C=CC(=O)N1CCC[C@]2(C1)C[C@H](n1c(NC(=O)c3ccc(C(F)F)s3)nc3cc(CN[C@@H](C)C(C)(C)C)ccc31)C2 [Compound 9]
 | 1.34 | C=CC(=O)N1CC[C@]2(C1)C[C@H](n1c(NC(=O)c3ccc(C#N)cc3)nc3cc(CN[C@@H](C)C(C)(C)C)ccc31)C2 [Compound 19]
 | 2.59 | C=CC(=O)N1CC[C@]2(C1)C[C@H](n1c(NC(=O)c3ccc(C(F)F)s3)nc3cc(CN4CCOCC4)ccc31)C2 [Compound 27]
 | 0.95 | C=CC(=O)N1CC[C@]2(C1)C[C@H](n1c(NC(=O)c3ccc(C(F)F)s3)nc3cc(CNCC(C)(C)CO)ccc31)C2 [Compound 37]
3.15 |  | C=CC(=O)N1CC[C@]2(C1)C[C@H](n1c(NC(=O)c3ccc(C(=O)Nc4cccnc4)s3)nc3ccccc31)C2 [Compound 85]
5.72 |  | C=CC(=O)N1CC[C@]2(C1)C[C@H](n1c(NC(=O)c3ccc(-c4cnco4)s3)nc3c(OC)cccc31)C2 [Compound 87]
17.6 |  | C=CC(=O)N1CC[C@]2(C1)C[C@H](n1c(NC(=O)c3ccc(C(=O)N4CCOCC4)s3)nc3ccccc31)C2 [Compound 91]
9.88 |  | C=CC(=O)N1CC[C@]2(C1)C[C@H](n1c(NC(=O)c3ccc(-c4noc(C)n4)s3)nc3ccccc31)C2 [Compound 93]
0.31 |  | C=CC(=O)N1CC[C@]2(C1)C[C@H](n1c(NC(=O)c3ccc(C(=O)OC)s3)nc3ccccc31)C2 [Compound 98]
64.1 |  | C=CC(=O)N1CC[C@]2(C1)C[C@H](n1c(NC(=O)c3ccc(NC(=O)c4cccnc4)s3)nc3ccccc31)C2 [Compound 111]
7.31 |  | C=CC(=O)N1CC[C@]2(C1)C[C@H](n1c(NC(=O)c3ccc(-c4ccc(C#N)cc4)s3)nc3ccccc31)C2 [Compound 118]
1.22 |  | C=CC(=O)N1CC[C@]2(C1)C[C@H](n1c(NC(=O)c3ccc(-c4cccc(C#N)c4)s3)nc3ccccc31)C2 [Compound 122]
 | 0.41 | C=CC(=O)N1CC[C@]2(C1)C[C@H](n1c(NC(=O)c3ccc(-c4ccnc(N)n4)s3)nc3ccccc31)C2 [Compound 138]
 | 0.68 | C=CC(=O)N1CC[C@]2(C1)C[C@H](n1c(NC(=O)c3ccc(-c4ccnc(C)n4)s3)nc3ccccc31)C2 [Compound 149]

Further lines, the molecule ahead of its results:

SMILES | IC50 (TXK) [nM] | IC50 (BTK) [nM]
C=CC(=O)N1CC2(CC(n3c(NC(=O)c4ccc(C(F)F)s4)nc4cc(CN[C@@H](C)C(C)(C)C)ccc43)C2)C1 [Compound 1] | 52.6 | 378
C=CC(=O)N1CC[C@]2(C1)C[C@H](n1c(NC(=O)c3ccc(-c4cnco4)s3)nc3cc(CN[C@@H](C)C(C)(C)C)ccc31)C2 [Compound 4] |  | 0.64
C=CC(=O)N1CC[C@]2(C1)C[C@H](n1c(NC(=O)c3cnco3)nc3cc(CN[C@@H](C)C(C)(C)C)ccc31)C2 [Compound 6] | 2.86 | 4.28
C=CC(=O)N1CC[C@]2(C1)C[C@H](n1c(NC(=O)c3cnc(C)s3)nc3cc(CN[C@@H](C)C(C)(C)C)ccc31)C2 [Compound 8] | 0.67 | 2.36
C=CC(=O)N1CCC[C@]2(C1)C[C@@H](n1c(NC(=O)c3ccc(C(F)F)s3)nc3cc(CN[C@@H](C)C(C)(C)C)ccc31)C2 [Compound 10] | 0.84 | 
C=CC(=O)N1CC[C@]2(C1)C[C@H](n1c(NC(=O)c3cncs3)nc3cc(CN[C@@H](C)C(C)(C)C)ccc31)C2 [Compound 13] |  | 1.8
C=CC(=O)N1CC[C@]2(C1)C[C@@H](n1c(NC(=O)c3ccc(C(F)F)s3)nc3ccccc31)C2 [Compound 17] | 11 | 
C=CC(=O)N1CC[C@]2(C1)C[C@H](n1c(NC(=O)c3ccns3)nc3cc(CN[C@@H](C)C(C)(C)C)ccc31)C2 [Compound 25] |  | 0.7
C=CC(=O)N1CC[C@]2(C1)C[C@H](n1c(NC(=O)c3ccc(C(C)(F)F)s3)nc3ccccc31)C2 [Compound 30] |  | 2.11
C=CC(=O)N1CC[C@]2(C1)C[C@H](n1c(NC(=O)c3ccc(-c4cnco4)s3)nc3cc(CN[C@H]4CC[C@H](O)CC4)ccc31)C2 [Compound 42] |  | 0.53
C=CC(=O)N1CC[C@]2(C1)C[C@H](n1c(NC(=O)c3ccc(-c4cnco4)s3)nc3cc(CNCC(C)(C)CO)ccc31)C2 [Compound 44] |  | 0.66
C=CC(=O)N1CC[C@]2(C1)C[C@H](n1c(NC(=O)c3ccc(-c4cnco4)s3)nc3cc(F)ccc31)C2 [Compound 57] |  | 1.09
C=CC(=O)N1CC[C@]2(C1)C[C@@H](n1c(NC(=O)c3ccc(-c4cnco4)s3)nc3cc(F)ccc31)C2 [Compound 68] |  | 41.9
C=CC(=O)N1CC[C@]2(C1)C[C@@H](n1c(NC(=O)c3ccc(-c4cnco4)s3)nc3ccc(Cl)cc31)C2 [Compound 69] | 7.71 | 
C=CC(=O)N1CC[C@]2(C1)C[C@@H](n1c(NC(=O)c3ccc(-c4cnco4)s3)nc3cc(Cl)ccc31)C2 [Compound 71] | 17.9 | 
C=CC(=O)N1CC[C@]2(C1)C[C@H](n1c(NC(=O)c3ccc(-c4cnco4)s3)nc3ccc(CO)cc31)C2 [Compound 73] | 0.26 | 
C=CC(=O)N1CC[C@]2(C1)C[C@H](n1c(NC(=O)c3ccc(-c4nc(C)no4)s3)nc3ccccc31)C2 [Compound 92] | 64.3 | 
C=CC(=O)N1CC[C@]2(C1)C[C@H](n1c(NC(=O)c3ccc(-c4cc[nH]c(=O)c4)s3)nc3ccccc31)C2 [Compound 97] |  | 0.33
C=CC(=O)N1CC[C@]2(C1)C[C@H](n1c(NC(=O)c3ccc(C(=O)N4CCCC4)s3)nc3ccccc31)C2 [Compound 102] | 5.63 | 
C=CC(=O)N1CC[C@]2(C1)C[C@H](n1c(NC(=O)c3ccc(NC(=O)C4CCCC4)s3)nc3ccccc31)C2 [Compound 106] | 30.1 | 
C=CC(=O)N1CC[C@]2(C1)C[C@H](n1c(NC(=O)c3ccc(N4CCCC4=O)s3)nc3ccccc31)C2 [Compound 121] | 5.48 | 
C=CC(=O)N1CC[C@]2(C1)C[C@H](n1c(NC(=O)c3ccc(-c4cncc(N)c4)s3)nc3ccccc31)C2 [Compound 128] |  | 0.63
C=CC(=O)N1CC[C@]2(C1)C[C@H](n1c(NC(=O)c3ccc(C(F)(F)CO)s3)nc3ccccc31)C2 [Compound 130] |  | 1.06
C=CC(=O)N1CC[C@]2(C1)C[C@H](n1c(NC(=O)c3ccc(-c4ccnc(NC)c4)s3)nc3ccccc31)C2 [Compound 131] |  | 0.46
C=CC(=O)N1CC[C@]2(C1)C[C@H](n1c(NC(=O)c3ccc(-c4cncnc4)s3)nc3cc(CO)ccc31)C2 [Compound 148] | 0.69 | 
